The values below come from PMC12102759 (Protein Science : A Publication of the Protein Society, 2025).

Test [1] relates to G3BP1 NFT2. In kind it is binding, human. To be noted: library DMS-BM; bait G3BP1 NFT2; prey CAPRIN1; AQMQGPYNFIQDSM(averaged): mean of the two overlapping peptides over the shared positions.
Test [2] has as its system G3BP1 NFT2. In kind it is binding, human. To be noted: library DMS-CoV, bait G3BP1 NFT2, prey N, listed as aa = residue placed at this position, column sums to 1.

Read-outs that look alike come from different tables or passages of the source.

For “AQMQGPYNFIQDSM(averaged) M14D (AQMQGPYNFIQDSD)”, the “DMS position-specific score (PSSM value) per amino-acid substitution, averaged” value with G3BP1 NFT2 [1] came out at 0.036. Still for that read-out and setting: then “AQMQGPYNFIQDSM(averaged) I10H (AQMQGPYNFHQDSM)”, with 0.003149; and “AQMQGPYNFIQDSM(averaged) N8G (AQMQGPYGFIQDSM)”, with 0.001288. Take APRITFGGPSDSTGSN P9K (APRITFGGKSDSTGSN): the “DMS PSSM value, P (position 9)” value with G3BP1 NFT2 [2] (peptide APRITFGGPSDSTGSN) was 0. Regarding RNAPRITFGGPSDSTG P4S (RNASRITFGGPSDSTG), in the test with G3BP1 NFT2 [2] (peptide RNAPRITFGGPSDSTG), the “DMS PSSM value, P (position 4)” value is given as 0.

Regarding APRITFGGPSDSTGSN A1R (RPRITFGGPSDSTGSN), in the test on G3BP1 NFT2 [2] (peptide APRITFGGPSDSTGSN), the “DMS PSSM value, A (position 1)” value is on record as 0. “APRITFGGPSDSTGSN S12Y (APRITFGGPSDYTGSN)”: in the test on G3BP1 NFT2 [2] (peptide APRITFGGPSDSTGSN), the “DMS PSSM value, S (position 12)” value is 0.2998. Consider RNAPRITFGGPSDSTG P4H (RNAHRITFGGPSDSTG), for which the “DMS PSSM value, P (position 4)” value in the test with G3BP1 NFT2 [2] (peptide RNAPRITFGGPSDSTG) stood at 0. With RNAPRITFGGPSDSTG F8A (RNAPRITAGGPSDSTG), the “DMS PSSM value, F (position 8)” value in the test with G3BP1 NFT2 [2] (peptide RNAPRITFGGPSDSTG) was determined as 0. “RNAPRITFGGPSDSTG P11H (RNAPRITFGGHSDSTG)”: in the test with G3BP1 NFT2 [2] (peptide RNAPRITFGGPSDSTG), the “DMS PSSM value, P (position 11)” value was 0. Regarding RNAPRITFGGPSDSTG N2T (RTAPRITFGGPSDSTG), the “DMS PSSM value, N (position 2)” value with G3BP1 NFT2 [2] (peptide RNAPRITFGGPSDSTG) was determined as 0.

Consider RNAPRITFGGPSDSTG T7S (RNAPRISFGGPSDSTG), for which the “DMS PSSM value, T (position 7)” value in the test with G3BP1 NFT2 [2] (peptide RNAPRITFGGPSDSTG) turned out to be 0. Take “RNAPRITFGGPSDSTG G10P (RNAPRITFGPPSDSTG)”: the “DMS PSSM value, G (position 10)” value with G3BP1 NFT2 [2] (peptide RNAPRITFGGPSDSTG) is on record as 0. With APRITFGGPSDSTGSN G7P (APRITFPGPSDSTGSN), in the test on G3BP1 NFT2 [2] (peptide APRITFGGPSDSTGSN), the “DMS PSSM value, G (position 7)” value is reported as 0. Turning to “APRITFGGPSDSTGSN S12T (APRITFGGPSDTTGSN)”, the “DMS PSSM value, S (position 12)” value with G3BP1 NFT2 [2] (peptide APRITFGGPSDSTGSN) is 0.00392.

Take APRITFGGPSDSTGSN P9M (APRITFGGMSDSTGSN): the “DMS PSSM value, P (position 9)” value with G3BP1 NFT2 [2] (peptide APRITFGGPSDSTGSN) worked out at 0. Take RNAPRITFGGPSDSTG T7I (RNAPRIIFGGPSDSTG): the “DMS PSSM value, T (position 7)” value with G3BP1 NFT2 [2] (peptide RNAPRITFGGPSDSTG) is on record as 0. On to APRITFGGPSDSTGSN F6N (APRITNGGPSDSTGSN), for which the “DMS PSSM value, F (position 6)” value with G3BP1 NFT2 [2] (peptide APRITFGGPSDSTGSN) was determined as 0.

Take RNAPRITFGGPSDSTG G9E (RNAPRITFEGPSDSTG): the “DMS PSSM value, G (position 9)” value in the test on G3BP1 NFT2 [2] (peptide RNAPRITFGGPSDSTG) is recorded as 0. Turning to RNAPRITFGGPSDSTG, in the test on G3BP1 NFT2 [2] (peptide RNAPRITFGGPSDSTG), the “DMS PSSM value, A (position 3)” value is listed as 0; the “DMS PSSM value, D (position 13)” value is recorded as 0; the “DMS PSSM value, F (position 8)” value is recorded as 1; the “DMS PSSM value, G (position 9)” value turned out to be 0. Also, in the test on G3BP1 NFT2 [2] (peptide RNAPRITFGGPSDSTG), the “DMS PSSM value, G (position 10)” value is 0; the “DMS PSSM value, G (position 16)” value came out at 0; the “DMS PSSM value, I (position 6)” value stood at 0; the “DMS PSSM value, N (position 2)” value was 0. Also, in the test on G3BP1 NFT2 [2] (peptide RNAPRITFGGPSDSTG), the “DMS PSSM value, P (position 4)” value stood at 0; the “DMS PSSM value, P (position 11)” value came to 1; the “DMS PSSM value, R (position 5)” value worked out at 0; the “DMS PSSM value, S (position 12)” value amounted to 0. Also, in the test on G3BP1 NFT2 [2] (peptide RNAPRITFGGPSDSTG), the “DMS PSSM value, S (position 14)” value is 0; the “DMS PSSM value, T (position 7)” value worked out at 0; the “DMS PSSM value, T (position 15)” value is on record as 0. In the case of RNAPRITFGGPSDSTG T7R (RNAPRIRFGGPSDSTG), the “DMS PSSM value, T (position 7)” value with G3BP1 NFT2 [2] (peptide RNAPRITFGGPSDSTG) worked out at 0. Take APRITFGGPSDSTGSN G8W (APRITFGWPSDSTGSN): the “DMS PSSM value, G (position 8)” value in the test on G3BP1 NFT2 [2] (peptide APRITFGGPSDSTGSN) was found to be 0. With “RNAPRITFGGPSDSTG G16I (RNAPRITFGGPSDSTI)”, the “DMS PSSM value, G (position 16)” value in the test with G3BP1 NFT2 [2] (peptide RNAPRITFGGPSDSTG) was determined as 0. APRITFGGPSDSTGSN T5F (APRIFFGGPSDSTGSN): in the test on G3BP1 NFT2 [2] (peptide APRITFGGPSDSTGSN), the “DMS PSSM value, T (position 5)” value is recorded as 0. As to “RNAPRITFGGPSDSTG D13Q (RNAPRITFGGPSQSTG)”, the “DMS PSSM value, D (position 13)” value in the test on G3BP1 NFT2 [2] (peptide RNAPRITFGGPSDSTG) turned out to be 0. Take “RNAPRITFGGPSDSTG S12A (RNAPRITFGGPADSTG)”: the “DMS PSSM value, S (position 12)” value in the test on G3BP1 NFT2 [2] (peptide RNAPRITFGGPSDSTG) was found to be 0.3916. “APRITFGGPSDSTGSN S10N (APRITFGGPNDSTGSN)”: the “DMS PSSM value, S (position 10)” value in the test with G3BP1 NFT2 [2] (peptide APRITFGGPSDSTGSN) turned out to be 0.

On to “RNAPRITFGGPSDSTG P11S (RNAPRITFGGSSDSTG)”, for which the “DMS PSSM value, P (position 11)” value in the test on G3BP1 NFT2 [2] (peptide RNAPRITFGGPSDSTG) amounted to 0. “APRITFGGPSDSTGSN S10A (APRITFGGPADSTGSN)”: the “DMS PSSM value, S (position 10)” value in the test with G3BP1 NFT2 [2] (peptide APRITFGGPSDSTGSN) was determined as 0.0189.

“RNAPRITFGGPSDSTG T15H (RNAPRITFGGPSDSHG)”: the “DMS PSSM value, T (position 15)” value with G3BP1 NFT2 [2] (peptide RNAPRITFGGPSDSTG) turned out to be 0.
